Results published in patent publication US5866380A, “Methods for bioconversion of ferulic acid to vanillic acid or vanillin and for the bioconversion of vanillic acid to vanillin using filamentous fungi” (Institut National De La Recherche Agronomique-I.N.R.A., priority 1994, dated 1999).

Tests used:
fungi = assay: toxicity of ferulic acid, vanillic acid and vanillin to the fungi; assay type: cell-based, filamentous fungi; conditions: for concentration toxic to the fungi: concentration in the culture
[1] = binding of vanillin by nonionic resin XAD2; assay type: physicochemical
[2] = binding of produced vanillin to XAD2 resin in Phanerochaete chrysosporium culture (experiment 2); assay type: physicochemical; conditions: experiment 2, XAD2 10% (weight/volume), 6 days of growth
Procedure: The strain used is the Phanerochaete chrysosporium strain MIC 247, deposited on 31st Aug. 1994 with the Collection Nationale de Culture de Microorganismes under the number I-1471. This strain was cultured as described in Example 1 above.
Vanillic acid was added sequentially, namely: 0.3 g/l at the end of 3 days of culture, then 0.3 g/l every day.
For experiment 2, sterile resin XAD2 (Amberlite) is added in the proportion of 10% (weight/volume) after 3 days+6 h of culture of the fungus, that is to say 6 h after adding vanillic acid (at a concentration of 300 mg/l).
Vanillic acid and its metabolites are assayed as described in Example 1 above.

SMILES: COc1cc(/C=C/C(=O)O)ccc1O [ferulic acid]
- concentration toxic to the fungi (fungi): above 2 g/l

SMILES: COc1cc(C(=O)O)ccc1O [vanillic acid]
- concentration toxic to the fungi (fungi): above 2 g/l

SMILES: COc1cc(C=O)ccc1O [vanillin]
- vanillin bound by the resin [1]: 98%
- vanillin produced that has been bound to the resin [2]: 94%
- concentration toxic to the fungi (fungi): above 2 g/l
- toxicity for the metabolism of the fungus (in words) (fungi; strain that accumulates vanillin (Nidulariales)): very quickly becomes toxic for the metabolism of the fungus
